Measured values taken from ChEMBL document CHEMBL3621110, “Discovery and Development of the Aryl O-Sulfamate Pharmacophore for Oncology and Women's Health” (J Med Chem, 2015).
Each block holds one compound with its values, some of them ahead of it.

How the values were obtained:
[1] = molecular target: Carbonic anhydrase 2 (Homo sapiens, UniProt P00918)
[2] = species on record: Rattus norvegicus; assay: animal or person; format: functional; settings: Wistar, po, 3 h
[3] = species on record: Rattus norvegicus; assay: animal or person; format: functional; settings: Wistar, po, 3 h; remark: listed apart in the source
[4] = molecular target: T1, Steryl-sulfatase (Homo sapiens, UniProt P08842); format: cell-based, JEG-3
T1 sequence (P08842 whole entry): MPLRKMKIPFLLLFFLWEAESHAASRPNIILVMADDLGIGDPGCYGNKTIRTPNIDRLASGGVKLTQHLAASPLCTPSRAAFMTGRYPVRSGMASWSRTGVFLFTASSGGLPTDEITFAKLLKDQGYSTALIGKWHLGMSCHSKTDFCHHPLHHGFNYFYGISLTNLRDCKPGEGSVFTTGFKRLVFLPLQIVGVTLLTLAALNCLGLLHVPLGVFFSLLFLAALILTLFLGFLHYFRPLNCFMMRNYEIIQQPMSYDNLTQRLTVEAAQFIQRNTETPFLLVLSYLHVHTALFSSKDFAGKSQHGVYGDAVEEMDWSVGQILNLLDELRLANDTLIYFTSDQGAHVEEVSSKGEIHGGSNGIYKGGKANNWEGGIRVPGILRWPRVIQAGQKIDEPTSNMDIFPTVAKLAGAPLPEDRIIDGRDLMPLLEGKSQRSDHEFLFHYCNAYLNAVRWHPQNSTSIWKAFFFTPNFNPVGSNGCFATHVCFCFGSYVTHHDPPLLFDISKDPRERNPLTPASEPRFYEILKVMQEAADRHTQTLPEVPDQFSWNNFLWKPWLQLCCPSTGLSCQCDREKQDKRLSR

[5] = tested on: MCF7; assay: cells; format: functional, cell-based; settings: Homo sapiens
[6] = tested on: MDA-MB-231; assay: cells; format: functional, cell-based; settings: Homo sapiens
[7] = tested on: MCF7; assay: animal or person; format: functional, Homo sapiens; settings: Mus musculus, MCF7, po
[8] = tested on: MCF7; assay: animal or person; format: functional, Homo sapiens; settings: Mus musculus, MCF7, po; remark: listed apart in the source
[9] = tested on: 4T1; assay: animal or person; format: functional; settings: Mus musculus
[10] = tested on: 4T1; assay: animal or person; format: functional; settings: Mus musculus; remark: listed apart in the source
[11] = tested on: MDA-MB-231; assay: animal or person; format: functional, Homo sapiens; settings: Mus musculus
[12] = tested on: MDA-MB-231; assay: animal or person; format: functional, Homo sapiens; settings: Mus musculus; remark: listed apart in the source
[13] = in vivo; settings: mouse, po, 10 mg/kg
[14] = in vivo; settings: MF1, mouse
[15] = in vivo; settings: MF1, mouse; remark: listed apart in the source
[16] = in vivo; settings: MF1, mouse; remark: listed apart in the source
[17] = in vivo; settings: MF1, mouse; remark: listed apart in the source
[18] = molecular target: T1, Steryl-sulfatase; format: cell-based, MCF7
[19] = species on record: Rattus norvegicus; assay: animal or person; format: functional; settings: Wistar, Liver, sc, 168 h
[20] = species on record: Rattus norvegicus; assay: animal or person; format: functional; settings: Wistar, Liver, sc, 168 h; remark: listed apart in the source
[21] = species on record: Rattus norvegicus; assay: animal or person; format: functional; settings: Liver, po, 2 h
[22] = species on record: Rattus norvegicus; assay: animal or person; format: functional; settings: Liver, po, 2 h; remark: listed apart in the source
[23] = species on record: Rattus norvegicus; assay: animal or person; format: functional; settings: Liver, po, 2 h; remark: listed apart in the source
[24] = species on record: Rattus norvegicus; assay: animal or person; format: functional; settings: po, 2 h
[25] = species on record: Rattus norvegicus; assay: animal or person; format: functional; settings: po, 2 h; remark: listed apart in the source
[26] = species on record: Rattus norvegicus; assay: animal or person; format: functional; settings: po, 2 h; remark: listed apart in the source
[27] = tested on: MCF7; assay: cells; format: functional; settings: Homo sapiens
[28] = species on record: Homo sapiens; format: functional
[29] = species on record: Homo sapiens; format: functional; remark: listed apart in the source
[30] = species on record: Homo sapiens; format: functional; remark: listed apart in the source
[31] = species on record: Homo sapiens; format: functional; remark: listed apart in the source
[32] = species on record: Rattus norvegicus; assay: animal or person; format: functional; settings: Wistar, Liver, po, 24 h
[33] = species on record: Rattus norvegicus; assay: animal or person; format: functional; settings: Wistar, Liver, po, 24 h; remark: listed apart in the source
[34] = tested on: DU-145; assay: cells; format: functional; settings: Homo sapiens
[35] = tested on: MDA-MB-231; assay: cells; format: functional; settings: Homo sapiens
[36] = tested on: MDA-MB-231; assay: animal or person; format: functional, Homo sapiens; settings: Mus musculus, MDA-MB-231, po, 840 h
[37] = molecular target: T1, Steryl-sulfatase
[38] = molecular target: T1, Steryl-sulfatase; set-up: species or system Placenta, Microsome
[39] = species on record: Homo sapiens; format: functional; settings: at 5 mg/day
[40] = species on record: Homo sapiens; format: functional; settings: at 80 mg/day
[41] = tested on: MCF7; assay: animal or person; format: functional, Homo sapiens; settings: Mus musculus, MCF7, po, 1176 h
[42] = tested on: MCF7; assay: animal or person; format: functional, Homo sapiens; settings: Mus musculus, MCF7, po, 1176 h; remark: listed apart in the source
[43] = in vivo; settings: Wistar, rat, po, 10 mg/kg

IC50 [4]: 1200 nM
SMILES: N#Cc1ccc(N(CCSc2ccc(OS(N)(=O)=O)c(Cl)c2)n2cnnc2)cc1
inhibition in vivo at 10 mg/kg [2]: 92% | inhibition in vivo at 10 mg/kg [3]: 98%

IC50 [5]: 70 nM | IC50 [6]: 80 nM
SMILES: COc1cc2c(cc1OS(N)(=O)=O)CC[C@@H]1[C@@H]2CC[C@]2(C)[C@@H](CC#N)CC[C@@H]12
inhibition in vivo at 20 mg/kg [7]: 22%

IC50 [18]: 10 nM
SMILES: CC/C(=C(/CC)c1ccc(OS(N)(=O)=O)cc1)c1ccc(OS(N)(=O)=O)cc1

GI50 [27]: 22800 nM
SMILES: C[C@]12CC[C@@H]3c4ccc(OS(N)(=O)=O)cc4CC[C@H]3[C@@H]1CCC2=O [EMATE]
inhibition in vivo at 0.1 mg/kg [19]: 87% | inhibition in vivo at 0.1 mg/kg [20]: 87% | inhibition in vivo at 10 mg/kg [21]: 98% | inhibition in vivo at 20 mg/kg [22]: 98% | inhibition in vivo at 40 mg/kg [23]: 98% | inhibition in vivo at 10 mg/kg [24]: 98% | inhibition in vivo at 20 mg/kg [25]: 98% | inhibition in vivo at 40 mg/kg [26]: 98% | inhibition (INH) [28]: 41% | inhibition (INH) [29]: 72% | inhibition (INH) [30]: 50% | inhibition (INH) [31]: 34%

IC50 [37]: 3000 nM
SMILES: CC(C)(C#N)c1cc(Cn2cncn2)cc(Sc2ccc(OS(N)(=O)=O)c(Cl)c2)c1

Further lines, the compound ahead of its results:

SMILES: CCc1cc2c(cc1OS(N)(=O)=O)CC[C@@H]1[C@@H]2CC[C@]2(C)[C@@H](OS(N)(=O)=O)CC[C@@H]12
Ki [1]: 232 nM

SMILES: COc1cc2c(cc1OS(N)(=O)=O)CC[C@@H]1[C@@H]2CC[C@]2(C)[C@@H](OS(N)(=O)=O)CC[C@@H]12
inhibition in vivo at 20 mg/kg [7]: 52% | inhibition in vivo at 5 mg/kg [8]: 46% | inhibition in vivo at 20 mg/kg/day [9]: 80.4% | inhibition in vivo at 20 mg/kg/day [10]: 35% | ED50 [11]: 10 mg/kg | ED50 [12]: 20 mg/kg | bioavailability at 24 h [13]: 85% | LD50 [14]: 30 mg/kg | selectivity ratio [15]: 3 | LD50 [16]: 80 mg/kg | selectivity ratio [17]: 4

SMILES: NS(=O)(=O)Oc1ccc(C(=O)c2ccc(OS(N)(=O)=O)cc2)cc1
inhibition in vivo at 1 mg/kg [32]: 84% | inhibition in vivo at 10 mg/kg [33]: 93%

SMILES: COc1cc2c(cc1OS(N)(=O)=O)CCN(Cc1cc(OC)c(OC)c(OC)c1)C2
GI50 [34]: 297 nM | GI50 [35]: 329 nM | inhibition in vivo at 20 mg/kg/day [36]: 84%

SMILES: NS(=O)(=O)Oc1ccc2c(c1)OC(=O)C1CCCCCC21 (centres undefined)
IC50 [38]: 8 nM | inhibition (INH) [39]: >=95% | inhibition (INH) [40]: >=95% | inhibition in vivo at 20 mg/kg [41]: 39% | inhibition in vivo at 20 mg/kg [42]: 79% | bioavailability [43]: 95%
